Values of other authors as cited in patent US9039761B2, “Ocular implant delivery assemblies with distal caps” (Allergan, Inc., priority 2006, dated 2015).

Conditions: efficacy in vivo; Goodman and Gilman's 8th Edition p. 1447

Structure (SMILES): C[C@]12CCC(=O)C=C1CC[C@@H]1[C@@H]2[C@@H](O)C[C@@]2(C)[C@H]1CC[C@]2(O)C(=O)CO [hydrocortisone]
- potency relative to dexamethasone (fold less potent): approximately twenty-five
